Data from patent publication US9085571B2, “Nonpeptide HIV-1 protease inhibitors” (Purdue Research Foundation, priority 2008, dated 2015).

These molecules were tested on HIV-1 (assay: Inhibition of HIV-1 (IC50)). Conditions: Human immunodeficiency virus 1.
Type: cell-based, human immunodeficiency virus type 1
With `COc1ccc(S(=O)(=O)N(CC(C)C)C[C@@H](O)[C@H](Cc2ccccc2)NC(=O)c2cc(C)cc(C(=O)N(C)Cc3nc(C)oc3C)c2)cc1` the IC50 was 30 nM. For `COc1ccc(S(=O)(=O)N(CC(C)C)C[C@@H](O)[C@H](Cc2ccccc2)NC(=O)c2cccc(C(=O)N3CCC[C@@H]3c3nc(C)cs3)c2)cc1`, the IC50 was 32 nM. `COc1ccc(S(=O)(=O)N(CC(C)C)C[C@@H](O)[C@H](Cc2ccccc2)NC(=O)c2cccc(C(=O)N(C)Cc3nc(C)co3)c2)cc1` showed an IC50 of 20 nM.

These molecules were tested against HIV-1 protease (Human immunodeficiency virus type 1 group M subtype B (isolate HXB2) (HIV-1), UniProt P04585) (assay: Inhibition of HIV proteases (inhibition constants, method of Toth and Marshall)). Conditions: not given.
Type: biochemical
Text: Techniques for measurement of the ability of the compounds herein described to decrease the proteolytic activity of proteases encoded by HIV are well known to those skilled in the relevant art and any one or combination of such techniques can be used to measure the inhibition of protease activity of the compound herein described. One illustrative method is described by Toth and Marshall (Toth & Marshall, Int. J. Pep. Protein Res. (1990), 36, 544-550). The disclosure of the foregoing is incorporated herein in its entirety by reference. In addition, the entirety of the disclosures of each of the publications cited herein are also incorporated herein by reference.
For `COc1ccc(S(=O)(=O)N(CC(C)C)C[C@@H](O)[C@H](Cc2ccccc2)NC(=O)c2cc(C)cc(C(=O)N(C)Cc3nc(C)oc3C)c2)cc1`, the Ki was 0.2 nM. In the case of `COc1ccc(S(=O)(=O)N(CC(C)C)C[C@@H](O)[C@H](Cc2ccccc2)NC(=O)c2cc(OC)cc(C(=O)N(C)Cc3nc(C)oc3C)c2)cc1`, the Ki is reported as 1 nM. Molecule `COc1ccc(S(=O)(=O)N(CC(C)C)C[C@@H](O)[C@H](Cc2ccccc2)NC(=O)c2cccc(C(=O)N(C)Cc3csc(C)n3)c2)cc1` has a Ki of 0.1 nM. For `COc1ccc(S(=O)(=O)N(CC(C)C)C[C@@H](O)[C@H](Cc2ccccc2)NC(=O)c2cccc(C(=O)N3CCC[C@@H]3c3nc(C)cs3)c2)cc1`, the Ki was 0.03 to 8 nM. `CCCN(C)C(=O)c1cc(OC)cc(C(=O)N[C@@H](Cc2ccccc2)[C@H](O)CN(CC(C)C)S(=O)(=O)c2ccc(OC)cc2)c1` gave a Ki of 20 nM. `COc1ccc(S(=O)(=O)N(CC(C)C)C[C@@H](O)[C@H](Cc2ccccc2)NC(=O)c2cc(N)cc(C(=O)N(C)Cc3nc(C)oc3C)c2)cc1` showed a Ki of 100 nM. `Cc1nc(CN(C)C(=O)c2cccc(C(=O)N[C@@H](Cc3ccccc3)[C@H](O)CN3C[C@H]4CCCC[C@H]4C[C@H]3C(=O)NC(C)(C)C)c2)c(C)o1` gave a Ki of 5 nM. `COc1ccc(S(=O)(=O)N(CC(C)C)C[C@@H](O)[C@H](Cc2ccccc2)NC(=O)c2ccc(C(=O)N(C)Cc3nc(C)oc3C)cc2)cc1` gave a Ki of 70 nM. Work on `Cc1coc(CN(C)C(=O)c2cccc(C(=O)N[C@@H](Cc3ccccc3)[C@H](O)CN(CC(C)C)S(=O)(=O)c3ccc(CO)cc3)c2)n1` yielded a Ki of 0.6 nM. For `CCCNC(=O)c1cc(OC)cc(C(=O)N[C@@H](Cc2ccccc2)[C@H](O)CN(CC(C)C)S(=O)(=O)c2ccc(OC)cc2)c1`, the Ki was 50 nM. `CNc1cc(C(=O)N[C@@H](Cc2ccccc2)[C@H](O)CN(CC(C)C)S(=O)(=O)c2ccc(OC)cc2)cc(C(=O)N(C)C2CCCCC2)c1` gave a Ki of 200 nM. Work on `COCc1coc(CN(C)C(=O)c2cccc(C(=O)N[C@@H](Cc3ccccc3)[C@H](O)CN(CC(C)C)S(=O)(=O)c3ccc(OC)cc3)c2)n1` yielded a Ki of 0.3 nM. `CCCN(C)C(=O)c1cc(C(=O)N[C@@H](Cc2ccccc2)[C@H](O)CN(CC(C)C)S(=O)(=O)c2ccc(OC)cc2)cc(N(C)C(=O)OC(C)(C)C)c1` was tested, and the Ki was 1000 nM. For `COc1ccc(S(=O)(=O)N(CC(C)C)C[C@@H](O)[C@H](Cc2ccccc2)NC(=O)c2cncc(C(=O)N(C)Cc3nc(C)oc3C)c2)cc1`, the Ki was 6 nM. `COc1ccc(S(=O)(=O)N(CC(C)C)C[C@@H](O)[C@H](Cc2ccccc2)NC(=O)c2cc(N)cc(C(=O)N(C)C3CCCCC3)c2)cc1` was tested, and the Ki was 300 nM. Work on `CCCN(C)C(=O)c1cc(NC)cc(C(=O)N[C@@H](Cc2ccccc2)[C@H](O)CN(CC(C)C)S(=O)(=O)c2ccc(OC)cc2)c1` yielded a Ki of 200 nM. Molecule `CCCN(CCC)C(=O)c1cccc(C(=O)N[C@@H](Cc2ccccc2)[C@H](O)CN(CC(C)C)S(=O)(=O)c2ccc(OC)cc2)c1` has a Ki of 20 nM. `COc1ccc(S(=O)(=O)N(CC(C)C)C[C@@H](O)[C@H](Cc2ccccc2)NC(=O)c2cccc(C(=O)N(C)Cc3nc(C)co3)c2)cc1` gave a Ki of 0.6 nM. `COc1ccc(S(=O)(=O)N(CC(C)C)C[C@@H](O)[C@H](Cc2ccccc2)NC(=O)c2cc(C(=O)N(C)C3CCCCC3)cc(N(C)C(=O)OC(C)(C)C)c2)cc1` showed a Ki of 1000 nM. `CCCN(CCC)C(=O)c1cccc(C(=O)N[C@@H](Cc2ccccc2)[C@H](O)CN2C[C@H]3CCCC[C@H]3C[C@H]2C(=O)NC(C)(C)C)c1` showed a Ki of 100 nM. With `Cc1nc(CNC(=O)c2cccc(C(=O)N[C@@H](Cc3ccccc3)[C@H](O)CN3C[C@H]4CCCC[C@H]4C[C@H]3C(=O)NC(C)(C)C)c2)c(C)o1` the Ki was 20 nM. `COc1ccc(S(=O)(=O)N(CC(C)C)C[C@@H](O)[C@H](Cc2ccccc2)NC(=O)c2cccc(C(=O)N3CCC[C@H]3c3nc(C)cs3)c2)cc1` showed a Ki of 30 nM. `CCCNC(=O)c1cc(NC)cc(C(=O)N[C@@H](Cc2ccccc2)[C@H](O)CN(CC(C)C)S(=O)(=O)c2ccc(OC)cc2)c1` showed a Ki of 300 nM. For `Cc1nc(CN(C)C(=O)c2cccc(C(=O)N[C@@H](Cc3ccccc3)[C@H](O)CN(CC(C)C)S(=O)(=O)c3ccc(N)cc3)c2)c(C)o1`, the Ki was 2 nM. `COc1ccc(S(=O)(=O)N(CC(C)C)C[C@@H](O)[C@H](Cc2ccccc2)NC(=O)c2ccccc2C(=O)N(C)Cc2nc(C)oc2C)cc1` gave a Ki of 600 nM. For `CNc1cc(C(=O)N[C@@H](Cc2ccccc2)[C@H](O)CN(CC(C)C)S(=O)(=O)c2ccc(OC)cc2)cc(C(=O)N(C)Cc2nc(C)oc2C)c1`, the Ki was 5 nM. Work on `CCCNC(=O)c1cc(N)cc(C(=O)N[C@@H](Cc2ccccc2)[C@H](O)CN(CC(C)C)S(=O)(=O)c2ccc(OC)cc2)c1` yielded a Ki of 400 nM. For `COc1ccc(S(=O)(=O)N(CC(C)C)C[C@@H](O)[C@H](Cc2ccccc2)NC(=O)c2cccc(C(=O)N(C)Cc3oc(C)nc3C)c2)cc1`, the Ki was 0.6 nM. `COc1ccc(S(=O)(=O)N(CC(C)C)C[C@@H](O)[C@H](Cc2ccccc2)NC(=O)c2cc(OC)cc(C(=O)N(C)C3CCCCC3)c2)cc1` gave a Ki of 40 nM.
